According to EP0325571B1, “New amines, their use and preparation” (priority 1988, dated 1989):
Like-named read-outs stand apart in the source and are kept apart here. Blank lines part the entries; values can stand above or below the molecule they belong to.

What was measured:
[1] = tested on: isolated urinary bladder; experiment: Anticholinergic activity on isolated urinary bladder (inhibition of carbachol-induced contraction of bladder strips); design: species or system guinea-pigs; settings: 60 minutes incubation with antagonist
Source text: a) Anticholinergic activity on isolated urinary bladder
Male guinea-pigs, weighing 250-350 g, were killed by a blow on the head and exsanguinated. The urinary bladders were quickly removed and placed in Na^+-Krebs, in which they were kept throughout the dissection procedure. The bladders were dissected free from adherent fat and connective tissue before they were cut open by an incision on each side from the base towards apex. The mucosa was carefully removed with a pair of scissors. Four strips, approximately 3-5 mm long were prepared by cutting in a parallel direction to the longitudinal muscle fibres, on each half of the bladder.
The bladder strips were immediately mounted vertically in 5 ml organ baths containing Na^+-Krebs solution aerated with carbogene gas to maintain the pH at about 7.4. The temperature, 37°C, was thermostatically controlled by a Lauda MS3 thermostatic circulator. The preparations were suspended between two hooks, one of which was connected to a Grass Instruments FT03 force transducer. The isomeric tension of the preparations was recorded by a Grass polygraph model 79D. The resting tension was applied to approximately 5 mN. The strips were allowed to stabilize for at least 45 minutes. During this period the resting tension was adjusted to 5 mN and the preparations were repeatedly washed.
In the preliminary experiments concentration - effect curves for carbachol (carbamylcholin chloride) were studied, in order to determine a suitable agonist concentration for inhibition studies with antagonist. The carbachol concentration chosen, 3 x 10^-6M, produced a submaximal contractant response (70%). In the inhibition studies, the strips were contracted with carbachol (3 x 10^-6M) every 15 minutes. The strips were washed three times after every agonist addition. This procedure was repeated until a reproducible contractant response was observed. A variation of about 10% for three subsequent contractions was accepted as reproducible.
Initially each antagonist was tested in a concentration of 10-t1M, on. two bladder-strips from different guinea-pigs. When a reproducible response with 3 × 10^-6M carbachol was obtained, the strips were incubated with the antagonist for 15 minutes before the next carbachol was added. If the antagonist produced more than 50% inhibition of the response to carbachol, a complete concentration-inhibition curve was also made. In the complete inhibition curves, the strips were then incubated for 60 minutes with a fixed concentration of the antagonist before the next addition of carbachol. The effect of the antagonists was calculated as per cent inhibition of the mean of the initial agonist-induced contractions. To generate concentration-inhibition curves the antagonists were studied in 6-8 concentrations and for each concentration a fresh preparation was used, i.e. the strips were only exposed to the antagonist once before they were discarded.

[2] = tested on: portal vein; experiment: Noradrenaline antagonism on isolated portal vein; design: species or system rat; settings: 10 min
Source text: (§1) b) Antagonistic effect to noradrenaline and calcium on the portal vein
(§2) Preparation of isolated portal vein from rat
(§3) Animals : Albino, male rats, weighing about 200 g.
(§4) The rat is killed by a blow on the neck and decapitated. The abdomen is opened, the vein is dissected free from fat, cut open longitudinally and mounted in an organ bath. Changes in isometric tension is registered by a force displacement transducer, connected to an amplifier and a writing oscillograph.
Noradrenaline - antagonism on portal vein
Doses: Noradrenaline 3 x 10-^7 M
The chosen doses give about 70% of maximal response. The agonist is added to the bath at 10-minutes intervals. When reproducible contractions are obtained a fixed concentration of the test substance is added to the bath. After an incubation period of 10 minutes noradrenaline is added. The next concentration of the test substance is added when the original response of the agonist is obtained.
The antagonistic effect of the substance is calculated as per cent inhibition of the mean response by three preceding doses of the agonist.

[3] = tested on: portal vein; experiment: Ca-antagonistic effect on isolated portal vein (spontaneous myogenic activity); design: species or system rat; settings: 10 mM K^+-solution added, cumulative doses
Source text: as §1, §2, §3, §4
Ca - antagonistic effect on portal vein
10 mM K^+-solution is added to the Krebs buffer to stabilize the spontaneous myogenic activity of the vein. The amplitude of the muscle contractions is measued. The test substance is added to the bath in cumulative doses until total inhibition is obtained.

[4] = Acute toxicity in mice, i.v. bolus; format: in vivo; settings: mouse, in vivo, iv; LD50-interval: between highest dose where 4 mice survived and lowest dose where 4 mice died within 5 minutes after i.v. bolus
Procedure: (§5) d) Acute toxicity in mice
(§6) The antagonists to be tested were dissolved in 0.9% NaCI. If they were not soluble in 0.9% NaCI they were dissolved in double distilled water. The solutions were prepared on the day of the experiment.
(§7) White male mice, 25 g, were placed in a mouse holder. The tested compounds were given as i.v. bolus doses in one of the four tail-veins, with a volume of 0.01 ml/g mouse. Each substance concentration was given to a group of four mice. 4-5 different concentrations of the antagonists were made and tested.
(§8) LDso-interval : The LD50-interval was between the highest dose where 4 mice survived and the lowest dose where 4 mice died within 5 minutes after an i.v. bolus dose.

[5] = tested on: mice; experiment: Acute toxicity in mice, i.v. bolus; format: in vivo; settings: lowest dose where 4 mice of 4 tested died within 5 minutes after i.v. bolus
Procedure: as §5, §6, §7, §8

[6] = tested on: conscious rat; experiment: Effect on heart rate in conscious rat (ECG); format: in vivo; settings: i.v. injection
Source text: e) Effect on heart rate in conscious rat
The animal is slightly anaestetized by ether and an infusion cannula is inserted into a tail vein. While still asleep the rat is placed in a simple device, made of a coarse, somewhat elastic net fixing the rat in a constant position. Electrodes are attached to the extremities and connected to an ECG-pulse pre-amplifier and a Grass polygraph. By recording the ECG, the heart rate can then be determined.
Before any substance is given the animal has regained consciousness and the heart rate has been constant for at least 15 minutes.
The substance is injected, i.v. in the infusion cannula and flushed with physiological saline.
ECG is recorded 0.25, 0.5, 1, 2, 3 and 5 minutes after completed injection and then every 5 minutes until the original heart rate is obtained.

[7] = Cavia porcellus, 1 h, read-out: Antichol. effect IC50 (M), guinea-pig bladder strips contracted with carbachol 3 x 10^-6M
[8] = Rattus norvegicus, read-out: Anti-N.A. effect IC50 (M)
[9] = Rattus norvegicus, read-out: Anti-Ca effect IC50 (M), rat portal vein
[10] = Cavia porcellus, 1 h, guinea-pig bladder strips contracted with carbachol 3 x 10^-6M, read-out: Antichol. effect IC50
[11] = rat portal vein, noradrenaline 3 x 10-^7 M, 10 minutes incubation, read-out: Anti-N.A. effect IC50
[12] = rat portal vein, read-out: Anti-Ca effect IC50
[13] = read-out: Antichol. effect IC50, guinea-pig bladder strips contracted with carbachol 3 x 10^-6M

SMILES: CC(C)N(CCC(c1ccccc1O)c1ccccc1O)C(C)C [Compound 13]
- IC50 [1, 7]: 9e-09 M
- IC50 [2, 8]: 3e-05 M
- IC50 [3, 9]: 1.5e-05 M
- LD50 at 5 min [4]: 5 to 10 mg/kg
- Lethal dose [5]: 10 mg/kg

SMILES: COc1ccccc1C(CCN(C)C)c1ccccc1 (stereo not drawn) [GB-A-1.169.944, N,N-dimethyl-3-(2-methoxyphenyl)-3-phenylpropylamine, reference compound]
- IC50 [1, 10]: 1.2e-06 M
- IC50 [2, 11]: 4.4e-06 M
- IC50 [3, 12]: 2.1e-05 M
- LD50 at 5 min [4]: 10 to 15 mg/kg
- Lethal dose [5]: 15 mg/kg

SMILES: CC(C)N(CCC(c1ccccc1)c1ccccc1O)C(C)C (racemic) [Compound 1, N,N-Diisopropyl-3-(2-hydroxyphenyl)-3-phenylpropylamine]
- IC50 [1, 10]: 1.8e-08 M
- IC50 [2, 11]: 1e-05 M
- IC50 [3, 12]: 1.5e-05 M
- LD50 at 5 min [4]: 10 to 20 mg/kg
- Lethal dose [5]: 20 mg/kg
- Effect on heart rate threshold dose [6]: 1 to 3 mg/kg

SMILES: CN(CCC(c1ccccc1)c1cc(O)ccc1O)C(C)(C)C (stereo not drawn) [Compound 8]
- IC50 [1, 10]: 3.1e-08 M
- IC50 [2, 11]: 5e-05 M
- IC50 [3, 12]: > 5e-05 M
- LD50 at 5 min [4]: > 6 mg/kg
- Lethal dose [5]: >6 mg/kg

SMILES: CN(CCC(c1ccccc1O)c1ccccc1O)C(C)(C)C [Compound 5]
- IC50 [1, 10]: 4.9e-09 M
- IC50 [2, 11]: 3.8e-05 M
- IC50 [3, 12]: 3e-05 M
- LD50 at 5 min [4]: 30 to 45 mg/kg
- Lethal dose [5]: 45 mg/kg
- Effect on heart rate threshold dose [6]: 1 to 3 mg/kg

SMILES: CC(CC(c1ccccc1)c1ccccc1)NC(C)(C)C (stereo not drawn) [Terodiline, terodiline, reference compound]
- IC50 [1, 10]: 5.2e-07 M
- IC50 [2, 11]: 2.4e-06 M
- IC50 [3, 12]: 1e-05 M
- LD50 at 5 min [4]: 15 to 20 mg/kg
- Lethal dose [5]: 20 mg/kg
- Effect on heart rate threshold dose [6]: 1 to 3 mg/kg

SMILES: CC(C)N(CCC(c1ccccc1)c1cc(O)ccc1O)C(C)C (stereo not drawn) [Compound 7]
- IC50 [1, 10]: 1.9e-08 M
- IC50 [2, 11]: 5e-05 M
- IC50 [3, 12]: 6.5e-05 M
- LD50 at 5 min [4]: 30 to 50 mg/kg
- Lethal dose [5]: 50 mg/kg

SMILES: COc1ccccc1C(CCN(C(C)C)C(C)C)c1ccccc1 (stereo not drawn) [Compound 3]
- IC50 [1, 7]: 2.4e-07 M
- IC50 [2, 8]: 3.6e-06 M
- IC50 [3, 9]: > 0.0001 M
- LD50 at 5 min [4]: 3 to 10 mg/kg
- Lethal dose [5]: 10 mg/kg

SMILES: Cc1ccc(O)c(C(CCN(C(C)C)C(C)C)c2ccccc2)c1 (single isomer, unassigned) [Compound 4b, (-)-N,N-Diisopropyl-3-(2-hydroxy-5-methylphenyl)-3-phenylpropylamine hydrogen D(-)-tartrate]
- IC50 [1, 13]: 1.3e-06 M
- IC50 ([3]; read-out: Anti-Ca effect IC50, rat portal vein): 6e-06 M

SMILES: CC(C)N(CCC(c1ccccc1)c1ccccc1O)C(C)C (single isomer, unassigned; (-)) [Compound 1b, (-)-N,N-diisopropyl-3-(2-hydroxyphenyl)-3-phenylpropylamine]
- IC50 ([1]; guinea-pig bladder strips contracted with carbachol 3 x 10^-6M, read-out: Antichol. effect IC50): 1.4e-08 M

SMILES: COc1ccccc1C(CCN(C)C(C)(C)C)c1ccccc1 (stereo not drawn) [Compound 2]
- IC50 [1, 10]: 1.5e-07 M
- IC50 [2, 11]: 3.5e-06 M
- IC50 [3, 12]: 9e-06 M
- LD50 at 5 min [4]: 10 to 20 mg/kg
- Lethal dose [5]: 20 mg/kg

SMILES: CN(CCC(c1ccccc1)c1ccccc1O)C(C)(C)C (stereo not drawn) [Compound 9]
- IC50 [1, 10]: 1.6e-08 M
- IC50 [2, 11]: 5e-05 M
- IC50 [3, 12]: 2.5e-05 M
- Lethal dose [5]: 20 mg/kg

SMILES: CC(C)N(CCC(c1ccccc1)c1ccccc1O)C(C)C (single isomer, unassigned; (+)) [Compound 1a, (+)-N,N-Diisopropyl-3-(2-hydroxyphenyl)-3-phenylpropylamine]
- IC50 [1, 10]: 1.8e-08 M

- IC50 [1, 10]: 6.2e-08 M
- IC50 [2, 11]: 4e-06 M
- IC50 [3, 12]: 7e-06 M
SMILES: COc1ccccc1C(CCN1C(C)(C)CCCC1(C)C)c1ccccc1 (stereo not drawn) [Compound 10]

SMILES: Cc1ccc(O)c(C(CCN(C(C)C)C(C)C)c2ccccc2)c1 (stereo not drawn) [Compound 4, N,N-Diisopropyl-3-(2-hydroxy-5-methylphenyl)-3-phenylpropylamine]
- IC50 [1, 13]: 1.5e-08 M
- IC50 [2, 8]: 5.5e-06 M
- IC50 [3, 9]: 6e-06 M
- LD50 at 5 min [4]: 30 to 40 mg/kg

SMILES: Cc1ccc(O)c(C(CCN(C(C)C)C(C)C)c2ccccc2)c1.O=C(O)C(O)C(O)C(=O)O (single isomer, unassigned; (+)) [Compound 4a, (+)-N,N-Diisopropyl-3-(2-hydroxy-5-methylphenyl)-3-phenylpropylamine hydrogen tartrate]
- IC50 ([1]; read-out: Antichol. effect IC50, guinea-pig bladder strips contracted with carbachol 3 x 10^-6M, tartrate): 1.3e-08 M
- IC50 ([3]; read-out: Anti-Ca effect IC50, rat portal vein, tartrate): 6.5e-06 M
- LD50 at 5 min [4]: 10 to 20 mg/kg
